The values below come from paper PMC9182347, “α-Glucosidase, α-Amylase and Antioxidant Evaluations of Isolated Bioactives from Wild Strawberry” (Molecules, 2022).

“And” between values parts separate entries of the source, which are not always exact repeats. Identical values can stand only once.

The target in one test is α-glucosidase (Saccharomyces cerevisiae, UniProt P53341). The class given is biochemical. On the procedure: The α-glucosidase solution (120 μL) of 0.50 U/mL in 0.10 M phosphate buffer (pH 6.90) was prepared and p-nitrophenyl-α-D-glucopyranoside (5 mM) was added as substrate solution. Different concentrations ranging from 62.50 µg/mL to 1000 µg/mL of the crude extracts, semi-purified fractions and isolated compounds of F. indica were prepared accordingly. The plant’s samples (extracts, semi-purified and purified compounds) were mixed with the solutions of enzyme as per the experiment and were incubated at 37 °C.
α-glucosidase, sequence (P53341 whole entry): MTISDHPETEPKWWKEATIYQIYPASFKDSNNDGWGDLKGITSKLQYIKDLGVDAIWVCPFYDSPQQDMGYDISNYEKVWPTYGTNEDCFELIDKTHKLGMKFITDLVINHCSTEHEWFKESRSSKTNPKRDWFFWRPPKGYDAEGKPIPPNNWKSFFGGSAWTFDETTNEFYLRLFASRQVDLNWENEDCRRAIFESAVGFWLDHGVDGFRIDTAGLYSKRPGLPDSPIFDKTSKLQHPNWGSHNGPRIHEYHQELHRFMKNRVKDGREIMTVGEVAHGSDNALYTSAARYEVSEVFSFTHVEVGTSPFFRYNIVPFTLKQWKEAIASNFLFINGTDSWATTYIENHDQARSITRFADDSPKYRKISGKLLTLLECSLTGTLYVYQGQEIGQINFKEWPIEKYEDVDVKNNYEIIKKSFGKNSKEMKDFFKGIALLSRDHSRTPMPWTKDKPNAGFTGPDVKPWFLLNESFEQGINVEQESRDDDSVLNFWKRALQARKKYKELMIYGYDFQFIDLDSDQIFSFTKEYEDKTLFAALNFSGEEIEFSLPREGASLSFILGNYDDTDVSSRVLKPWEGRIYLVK
After initial incubation for 15 min, 20 μL p-nitrophenyl-α-D-glucopyranoside solution was mixed and was again incubated in the same way. Finally, 80 μL solution of sod. carbonate (0.20 M) was added to finish up the reaction. The solution containing all the substrates except α-glucosidase served as a blank. The absorbances of experiments were measured at 405 nm. The experiments were repeated 3 times and the calculations were made as per the standard protocols.
(§1) The half inhibitory concentration (IC50) was calculated using Microsoft Excel program as per our previously reported method.

The next test concerns α-amylase. Nature of the test: In vitro α-amylase inhibition. It is filed as biochemical. The following applies: for α-Amylase Percent Inhibition: mean ± SEM, n = 3. On the procedure:
The amylase solution was prepared in phosphate buffer. The solutions of the F. indica and isolated compounds (62.50 to 1000 µg/mL) were added to the amylase solution and allowed to react. After reaction completion, starch solution was added and incubated as per the standard method. Afterwards, a solution of dinitro-salicylic acid was added to both test and control groups. The final solutions were heated for 3 min in boiling water and the absorbances were measured at […]. The experiments were performed in triplicates and percent inhibitions were calculated.
as §1

A short description of test [1]: DPPH free radicals scavenging assay. The following applies: for DPPH Percent Inhibition: mean ± SEM, n = 3. On the procedure:
The antioxidant activity was carried out for F. indica extracts, semi-purified ethyl acetate fractions and isolated compounds using DPPH free radicals. DPPH solution was prepared (24 mg/100 mL of methanol). Stock solutions (1 mg/mL) of F. indica extracts and isolated compounds were prepared in methanol and then diluted to 1000, 500, 250, 125, 62.5 μg/mL. Sample and DPPH solutions were mixed in a ratio of 1:1 and were incubated at 23 °C for 30 min. Finally, absorbance was measured at 517 nm using UV spectrophotometer (Thermo electron corporation, Waltham, MA, USA). Ascorbic acid was used as positive control. Percent radical scavenging activity was measured using the reported equations [61].
as §1

`C[C@H]1O[C@H](O[C@H]2[C@H](O)[C@@H](O)[C@@H](O[C@H]3[C@H](O)[C@@H](O)C(O)O[C@@H]3CO)O[C@@H]2CO)[C@H](O)[C@@H](O)[C@@H]1N[C@H]1C=C(CO)[C@@H](O)[C@H](O)[C@H]1O` (stereo partly shown) [Acarbose, acarbose]: at α-glucosidase, the “α-Glucosidase Percent Inhibition” value was 96.00 ± 0.30% and 90.61 ± 0.43% and 84.03 ± 0.86% and 77.58 ± 0.77% and 71.48 ± 0.74%. Also, the “α-Amylase Percent Inhibition” value with α-amylase (62.5 μg/mL) was 63.26 ± 0.93%; in the test on α-amylase (125 μg/mL), 67.05 ± 0.49%; in the test with α-amylase (250 μg/mL), 71.56 ± 0.49%; in the test on α-amylase (500 μg/mL) it was 74.03 ± 0.64%; with α-amylase (1000 μg/mL), 82.43 ± 0.52%.

As for `O=C1O[C@H]([C@@H](O)CO)C(O)=C1O` [Ascorbic acid], the “DPPH IC50” value in test [1] came to 4.98 µg/mL. In addition, the “DPPH Percent Inhibition” value in test [1] (62.5 μg/mL) is 75.45 ± 0.90%; in test [1] (125 μg/mL) it was 77.61 ± 0.43%; in test [1] (250 μg/mL), 82.40 ± 0.20%; in test [1] (500 μg/mL), 87.08 ± 0.47%; in test [1] (1000 μg/mL), 91.90 ± 0.96%.

On to `COc1c(O)c(C)c(Cl)c(OC)c1Cl` [Compound 1, 2,4-dichloro-6-hydroxy-3,5-dimethoxytoluene], for which the “α-Amylase IC50” value at α-amylase was 15.03 µg/mL and 17.65 µg/mL. The “DPPH IC50” value in test [1] worked out at 7.62 µg/mL.

Regarding `CC(C)=CC(=O)CC(C)c1ccc(C)cc1` (stereo not shown) [Compound 2, 2-methyl-6-(4-methylphenyl)-2-hepten-4-one], the “α-Amylase IC50” value on α-amylase stood at 16.56 µg/mL. Moreover, in test [1], the “DPPH IC50” value turned out to be 14.30 µg/mL.
